Measured values from US8609690B2, “Aryl- and heteroarylcarbonyl derivatives of substituted nortropanes, medicaments containing such compounds and their use” (Boehringer Ingelheim International GmbH, priority 2008, dated 2013).

What follows are compounds tested against T1, 11β-HSD 1 (Homo sapiens, UniProt P28845) (assay: In vitro inhibition of 11β-HSD 1, HTRF detection of cortisol generated by human liver microsomes). Conditions: 1 μM test compound, 100% indicates no inhibition, zero or below zero indicates complete inhibition (relative to carbenoxolone).
T1 construct: detecting cortisol generated from cortisterone by human liver microsomes; from tissue; host or cells: human liver microsomes
Assay type: biochemical
Method: Briefly, compounds were incubated for 1 hour at 37° C. in Tris buffer (20 mM tris, 5 mM EDTA, pH 6.0) containing NADPH (200 μM) and cortisone (80 nM). Cortisol generated in the reaction is then detected with a competitive immunoassay, involving two HTRF conjugates: cortisol linked to XL665 and anti-cortisol antibody labeled with Europium cryptate. The incubation period for detection reaction was typically 2 hours. The amount of cortisol is determined by reading the time-resolved fluorescence of the wells (Ex 320/75 nm; Em 615/8.5 nm and 665/7.5 nm). The ratio of the two emission signals is then calculated (Em665*10000/Em615). […] Each assay also contained a calibration curve with cortisol to transform the fluorescent data into cortisol concentrations. Percent inhibition of each compound was determined relative to the carbenoxolone signal. In Table 2 the 11β-HSD 1 inhibitory activities at 1 μM concentration of test compound, determined as described above, of the compounds listed in Table 3 are compiled, wherein 100% indicates no inhibition and a value of zero or below zero indicates complete inhibition.

T1 sequence (P28845 whole entry): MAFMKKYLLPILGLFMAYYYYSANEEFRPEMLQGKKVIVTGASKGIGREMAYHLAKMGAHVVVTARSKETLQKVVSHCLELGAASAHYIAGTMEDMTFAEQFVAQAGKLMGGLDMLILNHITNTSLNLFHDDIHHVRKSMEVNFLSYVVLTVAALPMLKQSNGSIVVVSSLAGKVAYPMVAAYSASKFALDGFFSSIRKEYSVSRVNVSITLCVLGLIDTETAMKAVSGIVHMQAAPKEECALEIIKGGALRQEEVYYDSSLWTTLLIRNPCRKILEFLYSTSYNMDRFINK

Row | Structure (SMILES) | Inhibitory activity on 11β-HSD 1, % CTL
1 | CC(C)(C)Oc1cccc(C(=O)N2[C@@H]3CC[C@H]2C[C@@H](c2ccc(F)cc2)C3)c1 [Example 45, endo-(3-tert-Butoxy-phenyl)-[3-(4-fluoro-phenyl)-8-aza-bicyclo[3.2.1]oct-8-yl]-methanone] | 82 % CTL
2 | O=C1Cc2ccc(C(=O)N3[C@@H]4CC[C@H]3C[C@@H](c3ccc(F)cc3)C4)cc2N1 [Example 46, endo-6-[3-(4-Fluoro-phenyl)-8-aza-bicyclo[3.2.1]octane-8-carbonyl]-1,3-dihydro-indol-2-one] | 97 % CTL
3 | O=C1Cc2cc(C(=O)N3[C@@H]4CC[C@H]3C[C@@H](c3ccc(F)cc3)C4)ccc2N1 [Example 47, endo-5-[3-(4-Fluoro-phenyl)-8-aza-bicyclo[3.2.1]octane-8-carbonyl]-1,3-dihydro-indol-2-one] | −17 % CTL
4 | Nc1nc2cc(C(=O)N3[C@@H]4CC[C@H]3C[C@@H](c3ccc(F)cc3)C4)ccc2[nH]1 [Example 48, endo-(2-Amino-1H-benzoimidazol-5-yl)-[3-(4-fluoro-phenyl)-8-aza-bicyclo[3.2.1]oct-8-yl]-methanone] | 1 % CTL
5 | CC(C)(C)Oc1ccc(C(=O)N2[C@@H]3CC[C@H]2C[C@@H](c2ccc(F)cc2)C3)cc1 [Example 49, endo-(4-tert-Butoxy-phenyl)-[3-(4-fluoro-phenyl)-8-aza-bicyclo[3.2.1]oct-8-yl]-methanone] | 67 % CTL
6 | Cc1cc2cc(C(=O)N3[C@@H]4CC[C@H]3C[C@@H](c3ccc(F)cc3)C4)ccc2[nH]1 [Example 50, endo-[3-(4-Fluoro-phenyl)-8-aza-bicyclo[3.2.1]oct-8-yl]-(2-methyl-1H-indol-5-yl)-methanone] | 6 % CTL
7 | CCn1ccc2ccc(C(=O)N3[C@@H]4CC[C@H]3C[C@@H](c3ccc(F)cc3)C4)cc21 [Example 51, endo-(1-Ethyl-1H-indol-6-yl)-[3-(4-fluoro-phenyl)-8-aza-bicyclo[3.2.1]oct-8-yl]-methanone] | 41 % CTL
8 | Cc1[nH]c2cc(C(=O)N3[C@@H]4CC[C@H]3C[C@@H](c3ccc(F)cc3)C4)ccc2c1C [Example 52, endo-(2,3-Dimethyl-1H-indol-6-yl)-[3-(4-fluoro-phenyl)-8-aza-bicyclo[3.2.1]oct-8-yl]-methanone] | 82 % CTL
9 | Cn1ccc2ccc(C(=O)N3[C@@H]4CC[C@H]3C[C@@H](c3ccc(F)cc3)C4)cc21 [Example 53, endo-[3-(4-Fluoro-phenyl)-8-aza-bicyclo[3.2.1]oct-8-yl]-(1-methyl-1H-indol-6-yl)-methanone] | −55 % CTL
10 | O=C(c1ccc2c(c1)CCCN2)N1[C@@H]2CC[C@H]1C[C@@H](c1ccc(F)cc1)C2 [Example 54, endo-[3-(4-Fluoro-phenyl)-8-aza-bicyclo[3.2.1]oct-8-yl]-(1,2,3,4-tetrahydro-quinolin-6-yl)-methanone] | −56 % CTL
11 | Cc1ccc(C(=O)N2[C@@H]3CC[C@H]2C[C@@H](c2ccc(F)cc2)C3)cc1O [Example 55, endo-[3-(4-Fluoro-phenyl)-8-aza-bicyclo[3.2.1]oct-8-yl]-(3-hydroxy-4-methyl-phenyl)-methanone] | 31 % CTL
12 | O=C(c1ccccc1F)N1[C@@H]2CC[C@H]1C[C@@H](c1ccc(F)cc1)C2 [Example 57, endo-(2-Fluoro-phenyl)-[3-(4-fluoro-phenyl)-8-aza-bicyclo[3.2.1]oct-8-yl]-methanone] | 63 % CTL
13 | CC(=O)Cc1ccc(C(=O)N2[C@@H]3CC[C@H]2C[C@@H](c2ccc(F)cc2)C3)cc1 [Example 58, endo-1-{4-[3-(4-Fluoro-phenyl)-8-aza-bicyclo[3.2.1]octane-8-carbonyl]-phenyl}-propan-2-one] | 68 % CTL
14 | Cn1c(=O)[nH]c2cc(C(=O)N3[C@@H]4CC[C@H]3C[C@@H](c3ccc(F)cc3)C4)ccc21 [Example 59, endo-5-[3-(4-Fluoro-phenyl)-8-aza-bicyclo[3.2.1]octane-8-carbonyl]-1-methyl-1,3-dihydro-benzoimidazol-2-one] | 95 % CTL
15 | O=C1NCCN1c1cccc(C(=O)N2[C@@H]3CC[C@H]2C[C@@H](c2ccc(F)cc2)C3)c1 [Example 60, endo-1-{3-[3-(4-Fluoro-phenyl)-8-aza-bicyclo[3.2.1]octane-8-carbonyl]-phenyl}-imidazolidin-2-one] | 63 % CTL
16 | COC(=O)c1cccc(C(=O)N2[C@@H]3CC[C@H]2C[C@@H](c2ccc(F)cc2)C3)c1 [Example 61, endo-3-[3-(4-Fluoro-phenyl)-8-aza-bicyclo[3.2.1]octane-8-carbonyl]-benzoic acid methyl ester] | 94 % CTL

Row | Structure (SMILES) | Inhibitory activity on 11β-HSD 1, % CTL
17 | O=C(c1ccc2cc[nH]c2c1)N1[C@@H]2CC[C@H]1C[C@@H](c1ccc(F)cc1)C2 [Example 62, endo-[3-(4-Fluoro-phenyl)-8-aza-bicyclo[3.2.1]oct-8-yl]-(1H-indol-6-yl)-methanone] | −47 % CTL
18 | N#Cc1ccccc1C(=O)N1[C@@H]2CC[C@H]1C[C@@H](c1ccc(F)cc1)C2 [Example 63, endo-2-[3-(4-Fluoro-phenyl)-8-aza-bicyclo[3.2.1]octane-8-carbonyl]-benzonitrile] | 91 % CTL
19 | CC(=O)Nc1cccc(C(=O)N2[C@@H]3CC[C@H]2C[C@@H](c2ccc(F)cc2)C3)c1 [Example 64, endo-N-{3-[3-(4-Fluoro-phenyl)-8-aza-bicyclo[3.2.1]octane-8-carbonyl]-phenyl}-acetamide] | 99 % CTL
20 | O=C1CCCN1c1ccc(C(=O)N2[C@@H]3CC[C@H]2C[C@@H](c2ccc(F)cc2)C3)cc1 [Example 65, endo-1-{4-[3-(4-Fluoro-phenyl)-8-aza-bicyclo[3.2.1]octane-8-carbonyl]-phenyl}-pyrrolidin-2-one] | 33 % CTL
21 | Cn1cnc2cc(C(=O)N3[C@@H]4CC[C@H]3C[C@@H](c3ccc(F)cc3)C4)ccc21 [Example 66, endo-[3-(4-Fluoro-phenyl)-8-aza-bicyclo[3.2.1]oct-8-yl]-(1-methyl-1H-benzoimidazol-5-yl)-methanone] | 77 % CTL
22 | CS(=O)(=O)c1cccc(C(=O)N2[C@@H]3CC[C@H]2C[C@@H](c2ccc(F)cc2)C3)c1 [Example 67, Endo-[3-(4-Fluoro-phenyl)-8-aza-bicyclo[3.2.1]oct-8-yl]-(3-methanesulfonyl-phenyl)-methanone] | 85 % CTL
23 | Cn1nnc2cc(C(=O)N3[C@@H]4CC[C@H]3C[C@@H](c3ccc(F)cc3)C4)ccc21 [Example 68, endo-[3-(4-Fluoro-phenyl)-8-aza-bicyclo[3.2.1]oct-8-yl]-(1-methyl-1H-benzotriazol-5-yl)-methanone] | 66 % CTL
24 | Cc1nc2cc(C(=O)N3[C@@H]4CC[C@H]3C[C@@H](c3ccc(F)cc3)C4)ccc2c(=O)[nH]1 [Example 69, endo-7-[3-(4-Fluoro-phenyl)-8-aza-bicyclo[3.2.1]octane-8-carbonyl]-2-methyl-3H-quinazolin-4-one] | 93 % CTL
25 | O=C(c1ccc2nccnc2c1)N1[C@@H]2CC[C@H]1C[C@@H](c1ccc(F)cc1)C2 [Example 70, endo-[3-(4-Fluoro-phenyl)-8-aza-bicyclo[3.2.1]oct-8-yl]-quinoxalin-6-yl-methanone] | 19 % CTL
26 | CC(=O)NCc1ccc(C(=O)N2[C@@H]3CC[C@H]2C[C@@H](c2ccc(F)cc2)C3)cc1 [Example 71, endo-N-{4-[3-(4-Fluoro-phenyl)-8-aza-bicyclo[3.2.1]octane-8-carbonyl]-benzyl}-acetamide] | 41 % CTL
27 | O=C(c1cccc2[nH]cnc12)N1[C@@H]2CC[C@H]1C[C@@H](c1ccc(F)cc1)C2 [Example 73, endo-(1H-Benzoimidazol-4-yl)-[3-(4-fluoro-phenyl)-8-aza-bicyclo[3.2.1]oct-8-yl]-methanone] | 90 % CTL
28 | Cc1nc2ccc(C(=O)N3[C@@H]4CC[C@H]3C[C@@H](c3ccc(F)cc3)C4)cc2[nH]1 [Example 74, endo-[3-(4-Fluoro-phenyl)-8-aza-bicyclo[3.2.1]oct-8-yl]-(2-methyl-3H-benzoimidazol-5-yl)-methanone] | 69 % CTL
29 | O=C1CCCN1c1cccc(C(=O)N2[C@@H]3CC[C@H]2C[C@@H](c2ccc(F)cc2)C3)c1 [Example 75, endo-1-{3-[3-(4-Fluoro-phenyl)-8-aza-bicyclo[3.2.1]octane-8-carbonyl]-phenyl}-pyrrolidin-2-one] | 92 % CTL
30 | O=C(c1ccc2c(c1)OC(F)(F)O2)N1[C@@H]2CC[C@H]1C[C@@H](c1ccc(F)cc1)C2 [Example 76, endo-(2,2-Difluoro-benzo[1,3]dioxol-5-yl)-[3-(4-fluoro-phenyl)-8-aza-bicyclo[3.2.1]oct-8-yl]-methanone] | 76 % CTL
31 | O=C(c1ccc(F)c(F)c1)N1[C@@H]2CC[C@H]1C[C@@H](c1ccc(F)cc1)C2 [Example 77, endo-(3,4-Difluoro-phenyl)-[3-(4-fluoro-phenyl)-8-aza-bicyclo[3.2.1]oct-8-yl]methanone] | 47 % CTL
32 | CN1C(=O)Cc2cc(C(=O)N3[C@@H]4CC[C@H]3C[C@@H](c3ccc(F)cc3)C4)ccc21 [Example 78] | 49 % CTL
